From patent publication US5541174A, “Analgesic method” (priority 1995, dated 1996) come the findings set out here.

One may read the ED50 as the dose that gives a 50% effect, or the effect in half of the subjects. Usually % Inhibition stands for the percentage by which the read-out fell short of the control.

In assay [1] the test system is acetic acid induced writhing in mice. The assay is described as follows: Acetic acid-induced writhing test. The class given is in vivo, ICR male mice. Here is the method:
1. Acetic acid-induced writhing test as described in Koster et al., "Acetic Acid for Analgesic Screening", Fed. Proc. 18, 412 (1959), incorporated by reference herein; and
Groups of 10 ICR male mice (Taisho Pharmaceutical Co. Research Center) were used to study each dose of every compound. Ligands or complexes were administered orally or subcutaneously in 0.1 ml of vehicle per 10 g of body weight 30 minutes before the intrapertioneal injection of 0.1 ml of 0.7% acetic acid solution per 10 g of body weight. Number of writhes were counted for each mouse during a period of 10 to 20 min after acetic acid injection. Inhibitory percent was calculated by comparison with the number of writhes in the non-treated control, vehicle-treated, and acetic acid-injected group. The ED50 value and 95% confidence limits were calculated from the inhibitory percent by the method of Litchfield and Wilcoxon.
(In general: In writhing tests, fewer writhes than in controls are read as antinociception.)

Assay [2] has as its system adjuvant-induced arthritic pain in rats. The assay is described as follows: Adjuvant-induced arthritic pain. The class given is in vivo, male Sprague-Dawley rats. The following applies: for time course of analgesia: FIG. 1, 5 hours post-treatment. An excerpt:
2. Adjuvant-induced arthritic pain as described in:
S. KUZNA, et al., Measurement of Arthritic Pain and Effects of Analgesics in the Adjuvant-Treated Rat, Chem. Pharm. Bull. 23, 1184-1191 (1975);
C. A. WINTER, et al., Analgesic Activity of Diflunisal in Rats with Hyperalygesia Induced by Freud's Adjuvant, J. Pharmacol. Exp. Ther. 211, 678-685 (1979; and
M. E. ROSENTHALE, et al., Adjuvant Arthritis:Immuno-Pathological and Hyperalgesic Features, Fed. Proced. 41, 2577-2582 (1982),
incorporated by reference herein.
Groups of 5-6 male Sprague-Dawley rats (Taisho Pharmaceutical Co. Research Center) weighing 140 to 160 g at the time of Mycobacterium butyricum (adjuvant, Difco Laboratories, Detroit, Mich.) injection were used to study each compound. Rats were injected intradermally at the base of the tail with 0.1 ml of a parafin oil suspension of 0.5 mg of heat-killed mycobacterium. Fifteen to 19 days later, drugs were administered orally or subcutaneously in 0.5 ml of vehicle per 100 g of body weight to rats showing the nociceptive reaction, vocalization following a gentle flexion of the tarsal-tibial joint of the inflamed hind-paw. Vocalization responses were measured every hour for 5 hours. […] The ED50 value and 95% confidence limits were calculated from the positive rate for non-treated controls, vehicle-treated adjuvant arthritic rats, by the method of Litchfield and Wilcoxin.
All drugs were suspended with 5% gum arabic in saline solution or wetted with enough propylene glycol to give a final concentration of 4% propylene glycol and the wetted solid suspended in 1.4% polyvinyl alcohol in saline.

Where [3] appears, read: oral, 5% gum arabic, 0.15 mmol/kg.
[4] abbreviates: oral, 5% gum arabic, 0.30 mmol/kg.
Where [5] appears, read: oral, 5% gum arabic, 0.60 mmol/kg.
Setting [6] is: oral, 5% gum arabic, 0.18 mmol/kg.
The mark [7] stands for this setting: oral, 5% gum arabic, 0.71 mmol/kg.
[8] abbreviates: oral, 5% gum arabic, 0.59 mmol/kg.

On to `Nc1ccccc1C(=O)[O-].Nc1ccccc1C(=O)[O-].[Cu+2]` [Cu(II)(anthranilate)2, Bisanthranilato(O,N)copper(II)], for which the ED50 was 0.50 mmol/kg in assay [1] (oral, 5% gum arabic in saline); greater than 0.89 mmol/kg in assay [1] (oral, PG-PVA in saline); 0.22 mmol/kg in assay [1] (s.c., PG-PVA in saline); greater than 0.60 mmol/kg in assay [2] (oral, 5% gum arabic in saline); greater than 0.60 mmol/kg in assay [2] (oral, PG-PVA in saline); 0.19 mmol/kg in assay [2] (s.c., PG-PVA in saline). In addition, the “analgesic effectiveness versus parent ligand” value in assay [1] (oral, 5% gum arabic in saline) is listed as “more effective than their parent ligands”; in assay [1] (oral, PG-PVA), “more effective than their parent ligands”; in assay [2] (oral, 5% gum arabic) it was “less effective than its parent ligand”; in assay [2] (oral, PG-PVA) it was “less effective than its parent ligand”. In addition, the “% Inhibition” value was 25% in assay [1] (setting [3]); 47% in assay [1] (setting [4]); 50% in assay [1] (setting [5]); 30% in assay [1] (s.c., PG-PVA, 0.07 mmol/kg); 42% in assay [1] (s.c., PG-PVA, 0.15 mmol/kg); 57% in assay [1] (s.c., PG-PVA, 0.30 mmol/kg). Further, the “% Inhibition” value was determined as 0% in assay [2] (setting [4]); 10% in assay [2] (setting [5]); 17% in assay [2] (oral, PG-PVA, 0.60 mmol/kg); 20% in assay [2] (s.c., PG-PVA, 0.07 mmol/kg); 43% in assay [2] (s.c., PG-PVA, 0.15 mmol/kg); 63% in assay [2] (s.c., PG-PVA, 0.30 mmol/kg).

For `[Cl][Cu][Cl]` [Cu(II)(chloride)2, reference compound], the 50% effective dose (ED50) in assay [1] (s.c., PG-PVA in saline) was 0.60 mmol/kg; in assay [2] (oral, PG-PVA in saline), greater than 2.24 mmol/kg; in assay [2] (s.c., PG-PVA in saline) it was greater than 2.24 mmol/kg. Also, the “% Inhibition” value in assay [1] (s.c., PG-PVA, 0.56 mmol/kg) was determined as 48%; in assay [1] (s.c., PG-PVA, 1.12 mmol/kg), 69%; in assay [1] (s.c., PG-PVA, 2.24 mmol/kg), 83%; in assay [2] (oral, PG-PVA, 2.24 mmol/kg) it was 0%; in assay [2] (s.c., PG-PVA, 2.24 mmol/kg), 3%. Moreover, the analgesic activity result in assay [2] (doses statistically significantly analgesic in the writhing model) is reported as “devoid of analgesic activity”.

For the compound `COc1ccc2c(c1)c(CC(=O)O)c(C)n2C(=O)c1ccc(Cl)cc1` [Indomethacin, reference compound], the ED50 in assay [1] (oral, 5% gum arabic in saline) was 0.04 mmol/kg; in assay [1] (oral, PG-PVA in saline) it was 0.01 mmol/kg; in assay [1] (s.c., PG-PVA in saline), 0.02 mmol/kg; in assay [2] (oral, 5% gum arabic in saline), 0.003 mmol/kg; in assay [2] (oral, PG-PVA in saline) it was 0.02 mmol/kg. In addition, the “% Inhibition” value is reported as 36% in assay [1] (oral, 5% gum arabic, 0.01 mmol/kg); 42% in assay [1] (oral, 5% gum arabic, 0.03 mmol/kg); 58% in assay [1] (oral, 5% gum arabic, 0.06 mmol/kg); 27% in assay [1] (oral, PG-PVA, 0.007 mmol/kg); 60% in assay [1] (oral, PG-PVA, 0.014 mmol/kg); 68% in assay [1] (oral, PG-PVA, 0.028 mmol/kg). For the same compound, the “% Inhibition” value in assay [1] (s.c., PG-PVA, 0.007 mmol/kg) is on record as 19%; in assay [1] (s.c., PG-PVA, 0.014 mmol/kg) it was 36%; in assay [1] (s.c., PG-PVA, 0.056 mmol/kg), 60%; in assay [2] (oral, 5% gum arabic, 0.001 mmol/kg), 27%; in assay [2] (oral, 5% gum arabic, 0.003 mmol/kg), 43%; in assay [2] (oral, 5% gum arabic, 0.006 mmol/kg) it was 77%. The “% Inhibition” value in assay [2] (oral, PG-PVA, 0.007 mmol/kg) is on record as 23%; in assay [2] (oral, PG-PVA, 0.014 mmol/kg), 43%; in assay [2] (oral, PG-PVA, 0.028 mmol/kg), 70%.

For the compound `O=C(O)c1cccnc1Nc1cccc(C(F)(F)F)c1` [Niflumic acid, 2[3(trifluoro-methyl)phenyl] aminonicotinic acid, reference compound], the ED50 in assay [1] (oral, 5% gum arabic in saline) worked out at 0.15 mmol/kg; in assay [1] (oral, PG-PVA in saline), 0.21 mmol/kg; in assay [1] (s.c., PG-PVA in saline), 0.10 mmol/kg; in assay [2] (oral, 5% gum arabic in saline), 0.42 mmol/kg; in assay [2] (oral, PG-PVA in saline), 0.48 mmol/kg. For the same compound, the “% Inhibition” value in assay [1] (setting [6]) is 52%; in assay [1] (setting [7]) it was 75%; in assay [1] (oral, PG-PVA, 0.13 mmol/kg) it was 38%; in assay [1] (oral, PG-PVA, 0.27 mmol/kg), 51%; in assay [1] (oral, PG-PVA, 0.53 mmol/kg), 80%; in assay [1] (s.c., PG-PVA, 0.04 mmol/kg), 21%. In addition, the “% Inhibition” value in assay [1] (s.c., PG-PVA, 0.09 mmol/kg) is listed as 54%; in assay [1] (s.c., PG-PVA, 0.18 mmol/kg), 64%; in assay [2] (setting [6]) it was 13%; in assay [2] (setting [7]) it was 87%; in assay [2] (oral, PG-PVA, 0.18 mmol/kg), 23%; in assay [2] (oral, PG-PVA, 0.71 mmol/kg), 60%.

Take `O=C(O)c1ccccc1O` [Salicylic acid, reference compound]: the ED50 in assay [1] (oral, 5% gum arabic in saline) is 2.13 mmol/kg; in assay [1] (oral, PG-PVA in saline) it was greater than 2.17 mmol/kg; in assay [1] (s.c., PG-PVA in saline) it was 1.02 mmol/kg; in assay [2] (oral, 5% gum arabic in saline), 2.33 mmol/kg; in assay [2] (oral, PG-PVA in saline), 1.83 mmol/kg. In addition, the “% Inhibition” value is reported as 29% in assay [1] (oral, 5% gum arabic, 0.91 mmol/kg); 33% in assay [1] (oral, 5% gum arabic, 1.81 mmol/kg); 73% in assay [1] (oral, 5% gum arabic, 3.62 mmol/kg); 38% in assay [1] (oral, PG-PVA, 2.17 mmol/kg); 25% in assay [1] (s.c., PG-PVA, 0.54 mmol/kg); 52% in assay [1] (s.c., PG-PVA, 1.09 mmol/kg). For the same compound, the “% Inhibition” value came to 80% in assay [1] (s.c., PG-PVA, 2.17 mmol/kg); 27% in assay [2] (oral, 5% gum arabic, 1.09 mmol/kg); 57% in assay [2] (oral, 5% gum arabic, 2.17 mmol/kg); 37% in assay [2] (oral, 5% gum arabic, 4.34 mmol/kg); 33% in assay [2] (oral, PG-PVA, 0.72 mmol/kg); 43% in assay [2] (oral, PG-PVA, 1.44 mmol/kg). Further, the “% Inhibition” value in assay [2] (oral, PG-PVA, 2.88 mmol/kg) is on record as 60%. For the same compound, the “time course of analgesia” value in assay [2] (oral, 5% gum arabic) was “began to decline in the 3 to 4 hr interval following treatment”.

Regarding “(Salicylato)2n -(aqua)4n -copper(II)n [Cu(II)(salicylate)2]”, the 50% effective dose (ED50) in assay [1] (oral, 5% gum arabic in saline) came to 0.65 mmol/kg; in assay [1] (oral, PG-PVA in saline) it was 1.53 mmol/kg; in assay [1] (s.c., PG-PVA in saline), 0.17 mmol/kg; in assay [2] (oral, 5% gum arabic in saline), 0.25 mmol/kg; in assay [2] (oral, PG-PVA in saline), 0.12 mmol/kg; in assay [2] (s.c., PG-PVA in saline) it was 0.12 mmol/kg. In addition, the “analgesic effectiveness versus parent ligand” value was “more effective than their parent ligands” in assay [1] (oral, 5% gum arabic in saline); “more effective than their parent ligands” in assay [1] (oral, PG-PVA); “more effective than its parent ligand” in assay [2] (oral, 5% gum arabic); “more effective than its parent ligand” in assay [2] (oral, PG-PVA). The “% Inhibition” value in assay [1] (setting [4]) was found to be 30%; in assay [1] (setting [8]), 43%; in assay [1] (oral, 5% gum arabic, 1.18 mmol/kg) it was 69%; in assay [1] (oral, PG-PVA, 0.30 mmol/kg), 20%; in assay [1] (oral, PG-PVA, 0.59 mmol/kg), 27%; in assay [1] (oral, PG-PVA, 1.18 mmol/kg), 46%. Besides, the “% Inhibition” value in assay [1] (s.c., PG-PVA, 0.07 mmol/kg) is 40%; in assay [1] (s.c., PG-PVA, 0.15 mmol/kg), 48%; in assay [1] (s.c., PG-PVA, 0.30 mmol/kg), 66%; in assay [2] (setting [3]) it was 27%; in assay [2] (setting [4]), 57%; in assay [2] (setting [8]) it was 73%. Also, the “% Inhibition” value in assay [2] (oral, PG-PVA, 0.15 mmol/kg) was determined as 30%; in assay [2] (oral, PG-PVA, 0.30 mmol/kg) it was 47%; in assay [2] (oral, PG-PVA, 0.59 mmol/kg) it was 90%; in assay [2] (s.c., PG-PVA, 0.04 mmol/kg) it was 20%; in assay [2] (s.c., PG-PVA, 0.07 mmol/kg), 37%; in assay [2] (s.c., PG-PVA, 0.15 mmol/kg), 57%. For the same compound, the “time course of analgesia” value in assay [2] (oral, 5% gum arabic) is reported as “maintained or increased throughout the entire 5 hour post-treatment interval”.
